From ChEMBL document CHEMBL1770110, “Pyrimido[4,5-d]azepines as potent and selective 5-HT2C receptor agonists: design, synthesis, and evaluation of PF-3246799 as a treatment for urinary incontinence” (Bioorg Med Chem Lett, 2011)
Active and inactive are the calls of the source. The calls are words filed in the database; no cut-off is given here.

Key:
[1] = Intrinsic clearance in dog liver microsomes; type: ADME, Canis lupus familiaris, Microsome
[2] = Elimination half life in CD rat at 1 mg/kg, iv administered as single bolus dose; type: ADME, organism-based; set-up: dose 1 mg/kg, route intravenous; conditions: in vivo, read-out: beta t1/2 (converted)
[3] = test system: Canis familiaris; test: Increase of peak urethral pressure in iv dosed anesthetized dog stress urinary incontinence model at 20 to 45 nM of free plasma concentration relative to control; type: functional, Canis lupus familiaris, Urethra
[4] = Intrinsic clearance in rat hepatocytes assessed per 10^6 cells; type: ADME, cell-based, Liver, Hepatocyte
[5] = test system: Rattus norvegicus; test: AUC (0 to infinity) in CD rat at 2 mg/kg, po administered as single dose; type: ADME, organism-based, Plasma; set-up: time infinity, dose 2 mg/kg, route oral; conditions: in vivo
[6] = Intrinsic clearance in dog hepatocytes assessed per 10^6 cells; type: ADME, cell-based, Canis lupus familiaris, Liver, Hepatocyte
[7] = Intrinsic clearance in human hepatocytes assessed per 10^6 cells; type: ADME, cell-based, Liver, Hepatocyte
[8] = Intrinsic clearance in human liver microsomes; type: ADME, Microsome
[9] = Drug excretion in CD rat urine at 1 mg/kg, iv administered as single bolus dose; type: ADME, organism-based; set-up: dose 1 mg/kg, route intravenous
[10] = Volume of distribution in CD rat at 1 mg/kg, iv administered as single bolus dose; type: ADME, organism-based; set-up: dose 1 mg/kg, route intravenous; conditions: in vivo
[11] = Volume of distribution in Beagle dog at 0.030 mg/kg, iv administered as infusion over 1 hr; type: ADME, organism-based, Canis lupus familiaris; set-up: dose 0.03 mg/kg, route intravenous; conditions: in vivo, 0.03 mg/kg
[12] = Plasma clearance in CD rat at 1 mg/kg, iv administered as single bolus dose; type: ADME, organism-based; set-up: dose 1 mg/kg, route intravenous
[13] = Plasma clearance in Beagle dog at 0.030 mg/kg, iv administered as infusion over 1 hr; type: ADME, organism-based, Canis lupus familiaris; set-up: dose 0.03 mg/kg, route intravenous; conditions: 0.03 mg/kg
[14] = Cmax in CD rat at 2 mg/kg, po administered as single dose; type: ADME, organism-based; set-up: dose 2 mg/kg, route oral; conditions: in vivo
[15] = Elimination half life in Beagle dog at 0.030 mg/kg, iv administered as single infusion over 1 hr; type: ADME, organism-based, Canis lupus familiaris; set-up: dose 0.03 mg/kg, route intravenous; conditions: in vivo, 0.03 mg/kg, read-out: beta t1/2 (converted)
[16] = Oral bioavailability in CD rat at 2 mg/kg administered as single dose; type: ADME, organism-based; conditions: in vivo
[17] = Tmax in CD rat at 2 mg/kg, po administered as single dose; type: ADME, organism-based; set-up: dose 2 mg/kg, route oral; conditions: in vivo
[18] = Dissociation constant, pKa of the compound; type: physicochemical
[19] = Intrinsic clearance in rat liver microsomes; type: ADME, Microsome
[20] = molecular target: T1, 5-hydroxytryptamine receptor 2C (Homo sapiens) (UniProt P28335); test: Agonist activity at human 5HT2C receptor expressed in CHO-K1 cells assessed as increase of fluorescence based calcium mobilization by FLIPR assay relative to control; type: functional, cell-based
T1 sequence (whole entry): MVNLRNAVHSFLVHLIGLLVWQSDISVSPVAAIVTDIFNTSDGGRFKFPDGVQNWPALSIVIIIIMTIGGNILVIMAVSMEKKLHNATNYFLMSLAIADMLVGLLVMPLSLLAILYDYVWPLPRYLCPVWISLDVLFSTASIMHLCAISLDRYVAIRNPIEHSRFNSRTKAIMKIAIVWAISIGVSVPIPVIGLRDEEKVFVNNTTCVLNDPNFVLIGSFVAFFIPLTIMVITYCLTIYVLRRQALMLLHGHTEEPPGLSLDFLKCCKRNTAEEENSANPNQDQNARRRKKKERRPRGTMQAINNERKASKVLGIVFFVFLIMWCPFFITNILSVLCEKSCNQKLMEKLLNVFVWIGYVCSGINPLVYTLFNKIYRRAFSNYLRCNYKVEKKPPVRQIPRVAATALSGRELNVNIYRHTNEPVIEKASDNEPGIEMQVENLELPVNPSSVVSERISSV

[21] = Binding affinity to L-type calcium channel verapamil binding site at 10000 nM
[22] = Binding affinity to L-type calcium channel diltiazem binding site at 10000 nM
[23] = Binding affinity to sodium channel site 2 at 10000 nM
[24] = test system: Canis familiaris; test: Increase of peak urethral pressure in iv dosed anesthetized dog stress urinary incontinence model; type: functional, organism-based; conditions: Canis lupus familiaris; Urethra
[25] = Binding affinity to L-type Ca2+ channel dihydropyridine binding site at 10000 nM
[26] = molecular target: Voltage-gated sodium channel type V alpha polypeptide (Oryctolagus cuniculus) (UniProt Q2MZF0); test: Inhibition of Nav1.5 in rabbit cardiac myocytes up to 100 uM; type: cell-based
[27] = molecular target: 5-hydroxytryptamine receptor 2A (Canis lupus familiaris) (UniProt O46635); test: Agonist activity at 5HT2A receptor in dog femoral artery relative to control; type: functional, tissue-based
[28] = molecular target: T2, Muscarinic acetylcholine receptor M5 (Homo sapiens) (UniProt P08912); test: Agonist activity at human muscarinic M5 receptor up to 10 uM; type: functional
T2 sequence (whole entry): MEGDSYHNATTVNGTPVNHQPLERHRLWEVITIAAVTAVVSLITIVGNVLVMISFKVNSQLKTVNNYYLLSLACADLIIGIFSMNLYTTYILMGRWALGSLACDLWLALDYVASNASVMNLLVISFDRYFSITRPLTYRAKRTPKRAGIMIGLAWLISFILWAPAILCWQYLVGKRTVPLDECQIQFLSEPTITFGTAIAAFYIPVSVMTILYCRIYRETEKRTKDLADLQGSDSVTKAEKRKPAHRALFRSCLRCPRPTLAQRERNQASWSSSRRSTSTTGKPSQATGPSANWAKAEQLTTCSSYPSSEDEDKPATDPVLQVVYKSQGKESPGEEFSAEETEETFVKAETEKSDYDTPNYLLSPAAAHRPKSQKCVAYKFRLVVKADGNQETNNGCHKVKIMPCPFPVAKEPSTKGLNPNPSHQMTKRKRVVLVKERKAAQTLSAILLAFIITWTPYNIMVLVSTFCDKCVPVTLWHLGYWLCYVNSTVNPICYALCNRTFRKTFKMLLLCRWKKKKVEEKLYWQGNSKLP

[29] = molecular target: T3, 5-hydroxytryptamine receptor 2B (Homo sapiens, UniProt P41595); test: Agonist activity at human 5HT2B receptor expressed in CHO-K1 cells assessed as increase of fluorescence based calcium mobilization at 10 uM by FLIPR assay relative to control; type: functional, cell-based
[30] = test system: Rattus norvegicus; test: Inhibition of 5HT2A receptor-mediated head twitches in rat at 10 mg/kg, po; type: functional, organism-based; set-up: dose 10 mg/kg
[31] = molecular target: 5-hydroxytryptamine receptor 2A (Homo sapiens) (UniProt P28223); test: Agonist activity at human recombinant 5HT2A receptor expressed in Swiss mouse 3T3 cells increase of fluorescence based calcium mobilization by FLIPR assay relative to control; type: functional, cell-based; conditions: NIH3T3
[32] = molecular target: T4, 5-hydroxytryptamine receptor 2C (Canis lupus familiaris) (UniProt Q60F97); test: Agonist activity at dog 5HT2C receptor ralative to control; type: functional
T4 sequence (whole entry): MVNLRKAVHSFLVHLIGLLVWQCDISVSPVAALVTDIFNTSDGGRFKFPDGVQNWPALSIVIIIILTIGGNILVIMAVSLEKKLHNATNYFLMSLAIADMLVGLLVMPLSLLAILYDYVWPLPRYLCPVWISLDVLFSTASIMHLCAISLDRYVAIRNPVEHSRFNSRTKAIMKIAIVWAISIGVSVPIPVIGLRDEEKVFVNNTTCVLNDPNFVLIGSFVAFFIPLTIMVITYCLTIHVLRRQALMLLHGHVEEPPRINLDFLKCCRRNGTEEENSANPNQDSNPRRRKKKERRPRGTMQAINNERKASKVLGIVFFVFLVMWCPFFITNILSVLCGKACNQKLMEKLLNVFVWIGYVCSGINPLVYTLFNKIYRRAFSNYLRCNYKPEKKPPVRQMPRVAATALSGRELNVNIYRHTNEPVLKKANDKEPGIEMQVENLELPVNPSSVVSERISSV

[33] = molecular target: T3, 5-hydroxytryptamine receptor 2B; test: Agonist activity at human recombinant 5HT2B receptor expressed in Swiss mouse 3T3 cells assessed as increase of fluorescence based calcium mobilization at 10 uM by FLIPR assay; type: functional, cell-based; conditions: NIH3T3
[34] = molecular target: T5, Muscarinic acetylcholine receptor M1 (Homo sapiens) (UniProt P11229); test: Agonist activity at human muscarinic M1 receptor up to 10 uM; type: functional
T5 sequence (whole entry): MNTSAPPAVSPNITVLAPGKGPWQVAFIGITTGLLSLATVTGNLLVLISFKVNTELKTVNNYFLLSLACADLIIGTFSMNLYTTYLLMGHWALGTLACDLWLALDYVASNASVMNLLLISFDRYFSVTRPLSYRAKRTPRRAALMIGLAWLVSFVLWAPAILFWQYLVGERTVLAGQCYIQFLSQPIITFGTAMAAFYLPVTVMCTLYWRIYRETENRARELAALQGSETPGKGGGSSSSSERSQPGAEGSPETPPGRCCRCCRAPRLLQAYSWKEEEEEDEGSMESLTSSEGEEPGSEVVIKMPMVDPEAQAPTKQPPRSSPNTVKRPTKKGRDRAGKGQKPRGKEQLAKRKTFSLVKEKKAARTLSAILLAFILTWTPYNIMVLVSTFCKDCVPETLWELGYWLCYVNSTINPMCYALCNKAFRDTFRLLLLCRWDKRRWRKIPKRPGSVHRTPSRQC

[35] = molecular target: T1, 5-hydroxytryptamine receptor 2C (Homo sapiens); test: Agonist activity at human recombinant 5HT2C receptor expressed in Swiss mouse 3T3 cells with low expression increase of fluorescence based calcium mobilization by FLIPR assay relative to control; type: functional, cell-based; conditions: NIH3T3
[36] = molecular target: T6, 5-hydroxytryptamine receptor 2C (Homo sapiens, UniProt P28335); test: Agonist activity at human 5HT2C receptor expressed in Swiss mouse 3T3 cells with low expression increase of fluorescence based calcium mobilization by FLIPR assay; type: functional, cell-based
T6 sequence (P28335 whole entry): T1 sequence (whole entry)

[37] = molecular target: T6, 5-hydroxytryptamine receptor 2C; test: Agonist activity at human 5HT2C receptor expressed in CHO-K1 cells assessed as increase of fluorescence based calcium mobilization by FLIPR assay; type: functional, cell-based
[38] = molecular target: T3, 5-hydroxytryptamine receptor 2B; test: Agonist activity at human 5HT2B receptor expressed in CHO-K1 cells assessed as increase of fluorescence based calcium mobilization by FLIPR assay; type: functional, cell-based
[39] = molecular target: T3, 5-hydroxytryptamine receptor 2B; test: Agonist activity at human 5HT2B receptor expressed in CHO-K1 cells assessed as increase of fluorescence based calcium mobilization by FLIPR assay relative to control; type: functional, cell-based
[40] = molecular target: T1, 5-hydroxytryptamine receptor 2C (Homo sapiens); test: Agonist activity at human 5HT2C receptor expressed in CHO-K1 cells assessed as increase of fluorescence based calcium mobilization at 10 uM by FLIPR assay relative to control; type: functional, cell-based
[41] = molecular target: T1, 5-hydroxytryptamine receptor 2C (Homo sapiens); test: Agonist activity at human 5HT2C receptor expressed in HEK293 cells assessed as 5-HT-induced maximum response by inositol phosphate accumulation assay; type: functional, cell-based

T3 sequence (P41595 whole entry): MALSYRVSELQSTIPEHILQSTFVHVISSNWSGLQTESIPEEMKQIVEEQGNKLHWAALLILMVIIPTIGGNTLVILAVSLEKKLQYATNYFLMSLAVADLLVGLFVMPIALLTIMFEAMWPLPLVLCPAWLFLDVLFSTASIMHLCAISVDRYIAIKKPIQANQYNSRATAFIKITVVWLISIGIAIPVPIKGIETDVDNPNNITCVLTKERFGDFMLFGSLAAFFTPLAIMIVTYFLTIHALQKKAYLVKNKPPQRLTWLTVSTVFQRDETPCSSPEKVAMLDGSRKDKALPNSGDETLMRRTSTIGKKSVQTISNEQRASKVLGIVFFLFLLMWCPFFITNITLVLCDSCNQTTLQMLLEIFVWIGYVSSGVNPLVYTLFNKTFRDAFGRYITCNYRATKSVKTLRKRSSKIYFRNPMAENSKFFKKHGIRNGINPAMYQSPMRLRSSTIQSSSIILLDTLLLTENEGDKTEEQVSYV
Sequence of 5-hydroxytryptamine receptor 2A (Canis lupus familiaris) (O46635 whole entry): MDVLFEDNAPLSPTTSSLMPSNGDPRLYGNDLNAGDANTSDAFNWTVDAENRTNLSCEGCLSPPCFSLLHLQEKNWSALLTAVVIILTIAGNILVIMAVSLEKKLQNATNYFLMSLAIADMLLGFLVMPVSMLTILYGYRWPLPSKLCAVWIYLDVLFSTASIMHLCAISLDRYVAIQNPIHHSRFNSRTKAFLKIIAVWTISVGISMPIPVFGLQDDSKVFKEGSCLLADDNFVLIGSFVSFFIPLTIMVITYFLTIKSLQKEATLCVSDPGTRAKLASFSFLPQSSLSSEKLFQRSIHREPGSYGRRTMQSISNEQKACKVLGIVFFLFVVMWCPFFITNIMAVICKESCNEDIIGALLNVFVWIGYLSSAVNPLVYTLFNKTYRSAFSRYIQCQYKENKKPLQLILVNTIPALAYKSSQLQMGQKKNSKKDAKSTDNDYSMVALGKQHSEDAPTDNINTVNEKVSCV
Sequence of 5-hydroxytryptamine receptor 2A (Homo sapiens) (P28223 whole entry): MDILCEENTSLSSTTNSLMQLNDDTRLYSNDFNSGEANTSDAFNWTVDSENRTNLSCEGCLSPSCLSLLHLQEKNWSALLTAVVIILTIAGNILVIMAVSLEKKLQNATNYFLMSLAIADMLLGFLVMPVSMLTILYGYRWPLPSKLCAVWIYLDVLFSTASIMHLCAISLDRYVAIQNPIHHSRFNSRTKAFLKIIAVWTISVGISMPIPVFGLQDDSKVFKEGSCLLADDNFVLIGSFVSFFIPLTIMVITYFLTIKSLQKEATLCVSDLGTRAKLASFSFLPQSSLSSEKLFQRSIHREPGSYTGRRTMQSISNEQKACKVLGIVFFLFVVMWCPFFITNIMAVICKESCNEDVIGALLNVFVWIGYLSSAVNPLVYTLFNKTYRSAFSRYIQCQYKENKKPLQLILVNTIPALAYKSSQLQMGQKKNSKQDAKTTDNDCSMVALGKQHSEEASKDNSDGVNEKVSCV

## c1ccc(Cc2ncc3c(n2)CCNCC3)cc1 [listing 1 of 2 here]
[1]
  microsomal CLint: < 7 µL/min/mg
[2]
  half-life: 168 min
[3]
  Activity: 20%
[4]
  hepatocyte CLint: 15 µL/min/1e6 cells
[5]
  AUC: 290 ng·h/mL
[6]
  hepatocyte CLint: < 5 µL/min/1e6 cells
[7]
  hepatocyte CLint: < 5 µL/min/1e6 cells
[8]
  microsomal CLint: < 7 µL/min/mg
[9]
  dose excreted: 10%
[10]
  Vd: 8.9 L/kg
[11]
  Vd: 3.5 L/kg
[12]
  clearance: 51 mL/min/kg
[13]
  clearance: 11.6 mL/min/kg
[14]
  Cmax: 49 ng/mL
[15]
  half-life: 204 min
[16]
  bioavailability: 44%
[17]
  Tmax: 15 min
[18]
  pKa: 8.5
[19]
  microsomal CLint: 28 µL/min/mg

## c1ccc(-c2ncc3c(n2)CCNCC3)cc1
[20]
  Activity: inactive

## c1ccc(Cc2ncc3c(n2)CCNCC3)cc1 [listing 2 of 2 here]
[21]
  inhibition: < 20%
[22]
  inhibition: < 20%
[23]
  inhibition: < 20%
[24]
  Activity: Dose-dependent effect
[25]
  inhibition: < 20%
[26]
  Activity: inactive
[27]
  Emax: 51%
[28]
  Activity: inactive
[29]
  Emax: 33%
[30]
  inhibition: inactive
[31]
  Emax: 82%
[32]
  Activity: 81%
[33]
  Emax: 33%
[34]
  Activity: inactive

## c1ccc(CCc2ncc3c(n2)CCNCC3)cc1
[35]
  Emax: 40%
[36]
  EC50: 4.8 µM
[20]
  Emax: 99%
[37]
  EC50: 110 nM

## Fc1ccccc1Cc1ncc2c(n1)CCNCC2
[38]
  EC50: 220 nM
[20]
  Emax: 65%
[39]
  Emax: 43%

## c1ccc(Cc2ncc3c(n2)CCNC3)cc1
[40]
  Emax: 64%

## C[C@H]1CNCCc2ccc(Cl)cc21
[41]
  Emax: 100%
[20]
  Emax: 84%
[32]
  Activity: 82%

## c1ccc(-c2ncc3c(n2)CCNC3)cc1
[20]
  Activity: inactive

## Cc1cccc(Cc2ncc3c(n2)CCNCC3)c1
[38]
  EC50: 410 nM
[20]
  Emax: 84%
[39]
  Emax: 62%

## c1ccc(Cc2ncc3c(n2)CNCC3)cc1
[40]
  Emax: 27%

## c1ccc(CCc2ncc3c(n2)CCNC3)cc1
[40]
  Emax: 50%

## Cc1ccc(Cc2ncc3c(n2)CCNCC3)cc1
[38]
  EC50: 164 nM
[20]
  Emax: 63%
[39]
  Emax: 80%
